Converted amounts (≈) assume the structure as drawn. “And” between values parts separate entries of the source, which are not always exact repeats. Equal entries are not always repeated. Where two headings read alike, the source gives them in different places.
Columns and labels:
[1] = format: in vitro ADME, Mice; conditions: mouse, microsomes, pH 7.5
Procedure, shortened: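 Compound at 1 µmol/l incubated with 0.5 mg/ml liver microsomes in 100 mM Tris-HCl pH 7.5, 6.5 mM MgCl2, 1 mM NADPH, 37 °C; acetonitrile-quenched at multiple time points, measured by HPLC-MS/MS. First-order half-lives converted to clearance as %Qh via well-stirred liver model.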

[2] = system: M. tuberculosis H37Rv (ATCC 27294); assay: microbe, parasite or virus in culture; format: cell-based
[3] = system: Msm 607; assay: microbe, parasite or virus in culture; format: cell-based
[4] = system: Mtb # 11291; assay: microbe, parasite or virus in culture; format: cell-based; conditions: for MIC: read-out: MIC Mtb # 11291
[5] = system: Mtb ATCC 35825; assay: microbe, parasite or virus in culture; format: cell-based
[6] = system: Enterococcus faecium; assay: MIC ESKAPES panel, Enterococcus faecium; format: cell-based
Protocol: (§1) Minimum inhibitory concentration (MIC) against ESKAPES panel of Gram positive and Gram negative pathogens (Enterococcus faecium, Staphylococcus aureus, Klebsiella pneumoniae, Acinetobacter baumannii, Pseudomonas aeruginosa, Enterobacter cloacae and Salmonella typhimurium [ESKAPES panel]) were determined at the FNDR by the standard broth dilution method [CLSI, M100]. […] Mueller Hinton broth (MHB) medium was used to grow ESKAPES panel strains. The individual cultures were added as 200 μL (inoculum of 3–7 × 10^5 cfu/ml) to the respective assay plates in each well to all columns, except the media control (200 μL of medium). […] The assay plates were incubated at 37 °C, and the results were noted on the 2nd day as turbidometric readout. The clear wells indicated inhibition of growth, while the turbid wells indicated uninhibited growth.

[7] = system: Staphylococcus aureus; assay: MIC ESKAPES panel, Staphylococcus aureus; format: cell-based
Protocol: as §1

[8] = system: Klebsiella pneumoniae; assay: MIC ESKAPES panel, Klebsiella pneumoniae; format: cell-based
Protocol: as §1

[9] = system: Mycobacterium avium; assay: microbe, parasite or virus in culture; format: cell-based
[10] = system: Mycobacterium fortuitum; assay: microbe, parasite or virus in culture; format: cell-based
[11] = system: Mycobacterium intracellulare; assay: microbe, parasite or virus in culture; format: cell-based
[12] = system: Msm #607; assay: Minimum bactericidal concentration (MBC), Msm #607; format: cell-based, Mycobacterium smegmatis; conditions: for MBC: Mycolicibacterium smegmatis
[13] = system: Mtb H37Rv; assay: Minimum bactericidal concentration (MBC), Mtb H37Rv; format: cell-based, Mycobacterium tuberculosis; conditions: for MBC: Mycobacterium tuberculosis, H37RV
[14] = target: His6-tagged ClpC1-NTD substrate, M. smegmatis ClpC1P1P2 (UniProt A0R574+P9WPC9); assay: biochemical; format: biochemical
Sequence of His6-tagged ClpC1-NTD substrate, M. smegmatis ClpC1P1P2 (P9WPC9 1-156, looked up, natural form): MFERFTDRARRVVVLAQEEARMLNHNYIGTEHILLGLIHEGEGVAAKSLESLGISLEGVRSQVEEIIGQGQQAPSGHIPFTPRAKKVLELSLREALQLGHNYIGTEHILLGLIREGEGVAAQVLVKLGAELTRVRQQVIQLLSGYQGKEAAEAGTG
Sequence of His6-tagged ClpC1-NTD substrate, M. smegmatis ClpC1P1P2 (A0R574 whole entry): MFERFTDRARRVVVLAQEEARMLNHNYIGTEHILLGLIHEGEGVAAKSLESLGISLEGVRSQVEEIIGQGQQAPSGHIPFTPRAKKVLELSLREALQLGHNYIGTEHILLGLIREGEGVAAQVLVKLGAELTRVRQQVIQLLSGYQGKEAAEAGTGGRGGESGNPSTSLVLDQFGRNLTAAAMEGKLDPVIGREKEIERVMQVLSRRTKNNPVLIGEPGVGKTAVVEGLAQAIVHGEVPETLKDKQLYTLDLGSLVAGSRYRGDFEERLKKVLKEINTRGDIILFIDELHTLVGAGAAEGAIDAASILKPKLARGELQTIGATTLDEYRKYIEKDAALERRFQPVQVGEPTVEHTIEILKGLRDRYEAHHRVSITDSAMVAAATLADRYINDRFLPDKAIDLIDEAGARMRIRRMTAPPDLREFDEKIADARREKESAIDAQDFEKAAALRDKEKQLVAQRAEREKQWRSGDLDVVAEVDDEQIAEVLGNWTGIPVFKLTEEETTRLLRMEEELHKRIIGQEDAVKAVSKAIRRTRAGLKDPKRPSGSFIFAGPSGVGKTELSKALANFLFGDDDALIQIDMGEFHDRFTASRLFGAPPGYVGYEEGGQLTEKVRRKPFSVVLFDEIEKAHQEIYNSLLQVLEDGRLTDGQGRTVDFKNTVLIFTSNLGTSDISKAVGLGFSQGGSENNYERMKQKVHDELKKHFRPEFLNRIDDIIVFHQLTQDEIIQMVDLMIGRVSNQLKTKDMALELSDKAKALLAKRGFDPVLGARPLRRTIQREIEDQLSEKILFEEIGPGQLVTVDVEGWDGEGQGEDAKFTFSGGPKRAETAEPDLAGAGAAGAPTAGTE

[15] = target: ClpC1-NTD substrate, M. tuberculosis ClpC1P1P2 (Mycobacterium tuberculosis, UniProt P9WPC9); assay: biochemical; format: biochemical; conditions: read-out: DC50, Mean
Sequence of ClpC1-NTD substrate, M. tuberculosis ClpC1P1P2 (P9WPC5 whole entry): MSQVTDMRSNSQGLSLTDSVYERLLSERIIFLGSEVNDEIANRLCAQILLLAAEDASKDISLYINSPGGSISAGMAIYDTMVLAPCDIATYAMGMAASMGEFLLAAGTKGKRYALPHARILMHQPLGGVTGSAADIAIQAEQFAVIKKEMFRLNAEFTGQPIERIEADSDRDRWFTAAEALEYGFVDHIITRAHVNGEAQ
Sequence of ClpC1-NTD substrate, M. tuberculosis ClpC1P1P2 (P9WPC9 whole entry): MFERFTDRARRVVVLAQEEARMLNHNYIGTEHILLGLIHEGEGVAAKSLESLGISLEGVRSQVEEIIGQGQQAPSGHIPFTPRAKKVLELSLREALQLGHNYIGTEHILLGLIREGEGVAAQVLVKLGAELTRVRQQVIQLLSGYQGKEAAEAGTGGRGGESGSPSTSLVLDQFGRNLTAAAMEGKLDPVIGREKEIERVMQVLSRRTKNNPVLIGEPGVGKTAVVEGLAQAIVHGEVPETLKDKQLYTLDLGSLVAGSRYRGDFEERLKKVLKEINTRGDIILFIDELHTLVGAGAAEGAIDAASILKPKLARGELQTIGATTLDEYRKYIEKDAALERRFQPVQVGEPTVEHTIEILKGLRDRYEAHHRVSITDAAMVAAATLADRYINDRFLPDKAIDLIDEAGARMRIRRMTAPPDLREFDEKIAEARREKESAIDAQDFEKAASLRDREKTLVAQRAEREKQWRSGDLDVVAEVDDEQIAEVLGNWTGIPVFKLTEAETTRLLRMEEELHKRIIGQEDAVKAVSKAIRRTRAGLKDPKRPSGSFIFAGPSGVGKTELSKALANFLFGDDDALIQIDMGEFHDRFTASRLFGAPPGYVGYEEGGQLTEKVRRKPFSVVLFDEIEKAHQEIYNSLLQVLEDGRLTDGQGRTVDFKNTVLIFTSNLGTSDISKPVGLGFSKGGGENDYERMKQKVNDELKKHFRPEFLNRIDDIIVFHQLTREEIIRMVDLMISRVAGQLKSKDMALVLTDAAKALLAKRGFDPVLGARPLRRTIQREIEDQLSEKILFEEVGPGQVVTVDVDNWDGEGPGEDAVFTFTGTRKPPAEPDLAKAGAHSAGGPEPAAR
Sequence of ClpC1-NTD substrate, M. tuberculosis ClpC1P1P2 (P9WPC3 whole entry, further chain): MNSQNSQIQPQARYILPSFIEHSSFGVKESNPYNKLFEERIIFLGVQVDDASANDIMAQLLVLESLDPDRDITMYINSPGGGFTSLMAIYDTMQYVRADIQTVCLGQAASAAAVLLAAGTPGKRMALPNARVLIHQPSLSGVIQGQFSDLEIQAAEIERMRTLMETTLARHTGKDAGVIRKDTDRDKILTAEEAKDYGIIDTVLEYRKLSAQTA

[16] = single well replicates, listed as 12 (UdSBI-4377)
[17] = Gram-Positive Bacteria, replicates 1-3, listed as 12 (UdSBI-4377)
[18] = Experiment 2, three replicate columns

## COC(c1ccccc1)C1NC(=O)C(C)NC(=O)C(CC(C)CO)N(C)C(=O)C(Cc2cn(C)c3ccccc23)NC(=O)C(Cc2cn(CCCCCn3cc(CC4NC(=O)C(CC(C)C)N(C)C(=O)C(C(C)C)NC(=O)C(C(OC)c5ccccc5)NC(=O)C(C)NC(=O)C(CC(C)CO)N(C)C(=O)C(Cc5cn(C)c6ccccc56)NC4=O)nn3)nn2)NC(=O)C(CC(C)C)N(C)C(=O)C(C(C)C)NC1=O (stereo not drawn) [Compound 12]
[1]
  Microsomal Stability Mice: < 24 %Qh
  Microsomal Stability Mouse QH: <24.2%
[2]; M. tuberculosis H37Rv 27294, single well replicates, read-out: MIC
  MIC: 0.098 µM (≈ 0.194 µg/mL)
[2]; Mycobacterium tuberculosis, M. tuberculosis H37Rv 27294, single well replicates, read-out: MIC
  MIC: 0.098 µM (≈ 0.194 µg/mL)
[2]; Mycobacterium tuberculosis, M. tuberculosis H37Rv strain, read-out: MIC Mtb H37Rv Mean ± SD
  MIC: 0.1 µM (≈ 0.198 µg/mL)
[2]; Mycobacterium tuberculosis, Mtb H37Rv (Supplementary Table 2), read-out: MIC Mtb
  MIC: 0.1 µM (≈ 0.198 µg/mL)
[2]; Mycobacterium tuberculosis, Mtb H37Rv, mean ± SD, n = 3 well replicates, read-out: MIC
  MIC: 0.1 µM (≈ 0.198 µg/mL)
[2]; Mycobacterium tuberculosis, Set 1, read-out: MIC (Mtb H37Rv) Set 1
  MIC: 0.05 µM and 0.095 µg/mL
[2]; Mycobacterium tuberculosis, Set 2, read-out: MIC (Mtb H37Rv) Set 2
  MIC: 0.05 µM and 0.095 µg/mL
[2]; Mycobacterium tuberculosis, Set 3, done at a different day than Set 1 and Set 2, read-out: MIC (Mtb H37Rv) Set 3
  MIC: 0.05 µM and 0.095 µg/mL
[2]; Mycobacterium tuberculosis, individual example (Supplementary Table 11), read-out: MIC Mtb H37Rv
  MIC: 0.05 µM and 0.1 µg/mL
[2]; Mycobacterium tuberculosis, individual measurements (source data), read-out: Mtb MIC
  MIC: 0.097 µM (≈ 0.192 µg/mL)
[2]; Mycobacterium tuberculosis, mean of 3 experiments +/- SD, unit taken from the sets above in the same table, read-out: MIC data (Mtb H37Rv) (+/- SD)
  MIC: 0.05 µM and 0.1 µg/mL
[2]; Mycobacterium tuberculosis, single determinations, read-out: Mtb MIC
  MIC: 0.097 µM (≈ 0.192 µg/mL)
[2]; Mycobacterium tuberculosis, value of the earlier manuscript version quoted in the peer review file, read-out: inhibition of the Mtb growth (MIC)
  MIC: 0.097 µM (≈ 0.192 µg/mL)
[2]; individual measurements (source data), read-out: Mtb MIC
  MIC: 0.097 µM (≈ 0.192 µg/mL)
[3]; Mycolicibacterium smegmatis, 607, read-out: MIC Msm 607
  MIC: 0.9 ± 0.3 µM (≈ 1.78 µg/mL)
[3]; Mycolicibacterium smegmatis, 607, read-out: MIC Msm #607, individual example (Supplementary Table 11)
  MIC: 0.8 µM and 1.5 µg/mL
[3]; Mycolicibacterium smegmatis, 607, read-out: Msm 607 MIC, single determinations
  MIC: 1.56 µM (≈ 3.09 µg/mL)
[3]; Mycolicibacterium smegmatis, ATCC607, Set-1, read-out: MIC (Msm ATCC607) Set-1
  MIC: 0.78 µM and 1.54 µg/mL
[3]; Mycolicibacterium smegmatis, ATCC607, Set-2, read-out: MIC (Msm ATCC607) Set-2
  MIC: 1.54 µM and 3.06 µg/mL
[3]; Mycolicibacterium smegmatis, ATCC607, Set-3, done at a different day than Set 1 and Set 2, read-out: MIC (Msm ATCC607) Set-3
  MIC: 0.78 µM and 1.54 µg/mL
[3]; Mycolicibacterium smegmatis, ATCC607, mean of 3 experiments ± SD, read-out: MIC including standard deviations (Msm ATCC607)
  MIC: 1.03 µM and 2.04 µg/mL
[3]; single determinations, listed as 12 (UdSBI-4377)
  Msm 607 MIC: 0.780 µM
[4]; Mycobacterium tuberculosis, mean, n = 2 well replicates
  MIC: < 0.1 µM and < 0.2 µg/mL
[4]; Mycobacterium tuberculosis, single well replicates
  MIC: < 0.1 µM and < 0.19 µg/mL
[4]; [16]
  MIC Mtb # 11291: <0.19 µg/mL
  MIC: <0.1 µM
[5]; Mycobacterium tuberculosis, ATCC35825, mean, n = 2 well replicates
  MIC: < 0.1 µM and < 0.2 µg/mL
[5]; Mycobacterium tuberculosis, ATCC35825, single well replicates
  MIC: < 0.19 µg/mL and < 0.1 µM
[5]; [16]
  MIC: <0.1 µM
  MIC Mtb ATCC 35825: <0.19 µg/mL
[6]; Enterococcus faecium, Gram positive, n = 3 well replicates
  MIC: > 50 µM
[6]; Enterococcus faecium, Gram-Positive Bacteria, replicates 1-3
  MIC: > 99 µg/mL
[6]; [17]
  MIC: >50 µM
[7]; [17]
  MIC: >50 µM
[7]; Staphylococcus aureus, Gram positive, n = 3 well replicates
  MIC: > 50 µM
[7]; Staphylococcus aureus, Gram-Positive Bacteria, replicates 1-3
  MIC: > 99 µg/mL
[8]; Gram-Negative Bacteria, replicates 1-3, listed as 12 (UdSBI-4377)
  MIC: >50 µM
[8]; Klebsiella pneumoniae, Gram negative, n = 3 well replicates
  MIC: > 50 µM
[8]; Klebsiella pneumoniae, Gram-Negative Bacteria, replicates 1-3
  MIC: > 99 µg/mL
[9]; Experiment 1, listed as 12 (UdSBI-4377), read-out: MIC Mycobacterium avium
  MIC: >50 µM
[9]; [18]
  MIC (µg/ml) Mycobacterium avium: >99.02 µg/mL
[9]; Experiment 2, three replicate columns, read-out: MIC (µM) Mycobacterium avium
  MIC: >50 µM
[9]; Mycobacterium avium, Experiment 1, read-out: MIC Mycobacterium avium
  MIC: > 99 µg/mL
[9]; Mycobacterium avium, Experiment 2, three replicate columns, read-out: MIC (µM) Mycobacterium avium
  MIC: > 50 µM
[9]; Mycobacterium avium, Experiment 2, three replicate columns, read-out: MIC (µg/ml) Mycobacterium avium
  MIC: > 99 µg/mL
[9]; Mycobacterium avium, mean ± SD, read-out: MIC Mycobacterium avium
  MIC: > 50 µM
[10]; Experiment 1, listed as 12 (UdSBI-4377), read-out: MIC Mycobacterium fortuitum
  MIC: >50 µM
[10]; [18]
  MIC (µg/ml) Mycobacterium fortuitum: >99.02 µg/mL
[10]; Experiment 2, three replicate columns, read-out: MIC (µM) Mycobacterium fortuitum
  MIC: >50 µM
[10]; Mycolicibacterium fortuitum, Experiment 1, read-out: MIC Mycobacterium fortuitum
  MIC: > 99 µg/mL
[10]; Mycolicibacterium fortuitum, Experiment 2, three replicate columns, read-out: MIC (µM) Mycobacterium fortuitum
  MIC: > 50 µM
[10]; Mycolicibacterium fortuitum, Experiment 2, three replicate columns, read-out: MIC (µg/ml) Mycobacterium fortuitum
  MIC: > 99 µg/mL
[10]; Mycolicibacterium fortuitum, mean ± SD, read-out: MIC Mycobacterium fortuitum
  MIC: > 50 µM
[11]; Experiment 1, listed as 12 (UdSBI-4377), read-out: MIC Mycobacterium intracellulare
  MIC: >50 µM
[11]; [18]
  MIC (µg/ml) Mycobacterium intracellulare: >99.02 µg/mL
[11]; Experiment 2, three replicate columns, read-out: MIC (µM) Mycobacterium intracellulare
  MIC: >50 µM
[11]; Mycobacterium intracellulare, Experiment 1, read-out: MIC Mycobacterium intracellulare
  MIC: > 99 µg/mL
[11]; Mycobacterium intracellulare, Experiment 2, three replicate columns, read-out: MIC (µM) Mycobacterium intracellulare
  MIC: > 50 µM
[11]; Mycobacterium intracellulare, Experiment 2, three replicate columns, read-out: MIC (µg/ml) Mycobacterium intracellulare
  MIC: > 99 µg/mL
[11]; Mycobacterium intracellulare, mean ± SD, read-out: MIC Mycobacterium intracellulare
  MIC: > 50 µM
[12]
  colony growth after replating (MBC assay): growth of colonies could be observed across all tested concentrations
[12]; ATCC607, read-out: MBC (from Set 3) Msm ATCC 607
  MBC: > 99 µg/mL and > 50 µM
[12]; read-out: MBC Msm #607
  MBC: > 50 µM and > 99 µg/mL
[13]
  colony growth after replating (MBC assay): did not form any colonies at concentrations at or above the MIC value
[13]; read-out: MBC (from Set 3) Mtb H37Rv
  MBC: 0.1 µM and 0.2 µg/mL
[13]; read-out: MBC Mtb H37Rv
  MBC: 0.1 µM and 0.2 µg/mL
[14]; read-out: DC50, single measurements
  DC50: 10.3 µM and 9.3 µM and 5.3 µM and 8.3 µM and 7.6 µM
[14]; read-out: DC50 M.smegmatis ClpC1P1P2 Mean
  DC50: 8.4 µM
[14]; read-out: DMax M.smegmatis ClpC1P1P2 Mean
  Dmax: 81%
[15]
  DC50: 7.1 µM

— publication PMC10914731, “Homo-BacPROTAC-induced degradation of ClpC1 as a strategy against drug-resistant mycobacteria” (Nature Communications, 2024)
